{"source": "patent US9540352B2", "about": "“Substituted 1,7-naphthyridines as dopamine D1 ligands” (PFIZER INC., priority 2014, dated 2017)", "data": [{"biological_target": "Human D1 Receptor (Homo sapiens (Human), UniProt P21728)", "sequence (P21728 whole entry)": "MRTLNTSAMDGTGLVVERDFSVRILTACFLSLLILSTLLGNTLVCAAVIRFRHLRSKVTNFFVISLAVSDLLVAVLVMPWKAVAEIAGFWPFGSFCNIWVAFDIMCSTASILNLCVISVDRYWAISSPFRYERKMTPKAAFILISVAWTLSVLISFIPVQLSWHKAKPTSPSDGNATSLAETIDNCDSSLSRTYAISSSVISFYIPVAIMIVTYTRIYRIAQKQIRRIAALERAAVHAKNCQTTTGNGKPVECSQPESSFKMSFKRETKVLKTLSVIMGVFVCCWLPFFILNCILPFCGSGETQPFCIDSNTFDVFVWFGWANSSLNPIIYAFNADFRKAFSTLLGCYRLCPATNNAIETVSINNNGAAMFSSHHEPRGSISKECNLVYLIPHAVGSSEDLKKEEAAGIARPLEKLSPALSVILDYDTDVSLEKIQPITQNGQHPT", "assay": "Human D1 receptor binding assay ([3H]-SCH23390 competition)", "conditions": "over-expressing LTK human cell lines; 0.5 nM [3H]-SCH23390; 30 min at 37 °C; footnote a: geometric mean of ≥5 determinations; footnote b: single determination; read-out: Human D1 Receptor Binding, Ki (nM); Geometric mean of 2-4 determinations (unless otherwise indicated)", "description": "The affinity of the compounds described herein was determined by competition binding assays similar to those described in Ryman-Rasmussen et al., “Differential activation of adenylate cyclase and receptor internalization by novel dopamine D1 receptor agonists”, Molecular Pharmacology 68(4):1039-1048 (2005).\nD1 binding assays were performed using over-expressing LTK human cell lines. […] These ligand and tissue concentrations were used in time course studies to determine linearity and equilibrium conditions for binding. Binding was at equilibrium with the specified amount of tissue in 30 minutes at 37° C. […] The pellet was resuspended in assay buffer [50 mM Tris (pH 7.4@ RT) containing 4 mM MgSO4 and 0.5 mM EDTA]. […] Non-specific binding was determined by radioligand binding in the presence of a saturating concentration of (+)-Butaclamol (10 μM), a D1 antagonist. After a 30 minute incubation period at 37° C., assay samples were rapidly filtered through Unifilter-96 GF/B PEI-coated filter plates and rinsed with 50 mM Tris buffer (pH 7.4 at 4° C.). […] The IC50 value (concentration at which 50% inhibition of specific binding occurs) was calculated by linear regression of the concentration-response data in Microsoft Excel. Ki values were calculated according to the Cheng-Prusoff equation: […]", "units": {"Ki": "nM"}, "values": [{"smiles": "Cc1c(-c2ccc(Oc3nccc4cccnc34)cc2)n(C)c(=O)[nH]c1=O", "note": "[Example 7, 1,5-dimethyl-6-[4-(1,7-naphthyridin-8-yloxy)phenyl]pyrimidine-2,4(1H,3H)-dione]", "Ki": 119}, {"smiles": "Cc1cc(Oc2nccc3ccccc23)ccc1-c1c(C)c(=O)[nH]c(=O)n1C", "note": "[Example 5, 6-[4-(Isoquinolin-1-yloxy)-2-methylphenyl]-1,5-dimethylpyrimidine-2,4(1H,3H)-dione]", "Ki": 1.9}, {"smiles": "Cc1cc(Oc2nccc3ccccc23)ccc1-c1c(C)n[nH]c(=O)c1C", "note": "[Example 11, 5-[4-(isoquinolin-1-yloxy)-2-methylphenyl]-4,6-dimethylpyridazin-3(2H)-one]", "Ki": 7.8}, {"smiles": "Cc1cc(Oc2nccc3cccnc23)ccc1-c1c(C)n[nH]c(=O)c1C", "note": "(single isomer, unassigned) [Example 3, (−)-4,6-Dimethyl-5-[2-methyl-4-(1,7-naphthyridin-8-yloxy)phenyl]pyridazin-3(2H)-one]", "Ki": 102}, {"smiles": "Cc1cc(Oc2nccc3nccnc23)ccc1-c1c(C)n[nH]c(=O)c1C", "note": "[Example 9, 4,6-dimethyl-5-[2-methyl-4-(pyrido[3,4-b]pyrazin-5-yloxy)phenyl]pyridazin-3(2H)-one]", "Ki": 306}, {"smiles": "Cc1cc(Oc2nccc3ncccc23)ccc1-c1c(C)n[nH]c(=O)c1C", "note": "[Example 10, 4,6-dimethyl-5-[2-methyl-4-(1,6-naphthyridin-5-yloxy)phenyl]pyridazin-3(2H)-one]", "Ki": 124}, {"smiles": "Cc1cc(Oc2nccc3cccnc23)ccc1-c1c(C)c(=O)[nH]c(=O)n1C", "note": "[Example 1, 1,5-Dimethyl-6-[2-methyl-4-(1,7-naphthyridin-8-yloxy)phenyl]pyrimidine-2,4(1H,3H)-dione]", "Ki": 28.5}, {"smiles": "COc1ccc2ccnc(Oc3ccc(-c4c(C)n[nH]c(=O)c4C)c(C)c3)c2c1", "note": "[Example 12, 5-{4-[(7-methoxyisoquinolin-1-yl)oxy]-2-methylphenyl}-4,6-dimethylpyridazin-3(2H)-one]", "Ki": 186}, {"smiles": "Cc1cc(Oc2nccc3cccc(C#N)c23)ccc1-c1c(C)n[nH]c(=O)c1C", "note": "[Example 14, 1-[4-(3,5-dimethyl-6-oxo-1,6-dihydropyridazin-4-yl)-3-methylphenoxy]isoquinoline-8-carbonitrile]", "Ki": 261}, {"smiles": "Cc1n[nH]c(=O)c(C)c1-c1ccc(Oc2nccc3cccnc23)cc1", "note": "[Example 4, 4,6-Dimethyl-5-[4-(1,7-naphthyridin-8-yloxy)phenyl]pyridazin-3(2H)-one]", "Ki": 205}, {"smiles": "Cc1cc(Oc2nccc3cccnc23)ccc1-c1c(C)n[nH]c(=O)c1C", "note": "(single isomer, unassigned) [Example 2, (+)-4,6-Dimethyl-5-[2-methyl-4-(1,7-naphthyridin-8-yloxy)phenyl]pyridazin-3(2H)-one]", "Ki": 115}, {"smiles": "Cc1cc(Oc2nccc3ccncc23)ccc1-c1c(C)n[nH]c(=O)c1C", "note": "[Example 8, 4,6-dimethyl-5-[2-methyl-4-(2,7-naphthyridin-1-yloxy)phenyl]pyridazin-3(2H)-one]", "Ki": 141}, {"smiles": "Cc1cc(Oc2nccc3cccnc23)ccc1-c1c(C)ncnc1C", "note": "[Example 6, 8-[4-(4,6-dimethylpyrimidin-5-yl)-3-methylphenoxy]-1,7-naphthyridine]", "Ki": 105}, {"smiles": "Cc1cc(Oc2nccc3ccc(C#N)cc23)ccc1-c1c(C)n[nH]c(=O)c1C", "note": "[Example 13, 1-[4-(3,5-dimethyl-6-oxo-1,6-dihydropyridazin-4-yl)-3-methylphenoxy]isoquinoline-7-carbonitrile]", "Ki": 334}]}]}
